# Results published in US8563706B2, “Efficient cell culture system for hepatitis C virus genotype 1A and 1B” (priority 2007, dated 2013).
# Experiments:
# [1] = tested on: JFH1 cultures or cultures with genotype 1a (H77), 1b (Con1) or 2a (J6) JFH1-based recombinants; details: previous studies; cited from earlier work
# [2] = tested on: JFH1-based recombinants of genotypes 1a, 1b, 2a, 2b, and 6a; type: cell-based, hepatitis C virus
# [3] = tested on: J6/JFH; details: previous studies; cited from earlier work
Compound,production of infectious virus (in words) [1],effect of treatment on infected cells and supernatant HCV RNA titers (in words) [2],decrease in supernatant HCV RNA titers [2] [log],decrease in the number of infected cells [2] [%],replication of J6/JFH (in words) [3]
NC12CC3CC(CC(C3)C1)C2 [amantadine],did not decrease production of infectious virus,no apparent effect,,,
interferon-α2b,,,~2,> 60,decreased replication
NC(=O)c1ncn([C@@H]2O[C@H](CO)[C@@H](O)[C@H]2O)n1 [ribavirin],did not decrease production of infectious virus,no apparent effect,,,
